Patent US12102685B2, “Immodulator peptides covalently modified with small molecules” (priority 2020, dated 2024)
Peptide text beside a SMILES is read from it.

Key:
[1] = Competition binding assay to metal-charged NTA-coated plates (x2B b)
Method: NTA-metal-affinity fluorescence assay was performed using 96-well NTA-metal-coated plates readily available from commercial sources such as Qiagen (Germantown, MD). NTA was charged with ferrous or ferric iron, zinc, copper, calcium, vanadium, ruthenium, cobalt, titanium, manganese or other metals. 400 ng of FITC-labeled immodulator peptide (or biotinylated immodulator peptide complexed to Alexa-488-labeled streptavidin) in PBS buffer was added per plate. After incubation at room temperature for 60 minutes, excess peptide was washed off and peptide was detected by measuring fluorescence (excitation 490 nm, emmission 525 nm) in a fluorometer. • (a) Using FITC-labeled IM3 peptide (1 ug/well) in the fluorescent binding assay: • EDTA-treated control: 2,251±1,186 • Ferrous iron: 170,441±11,264 (p<0.001)* • Copper: 13,644±5566 (p<0.05)* • Calcium: 48,822±11,990 (p<0.01)* • *p values are relative to EDTA-treated control • (b) Competition binding assay to ferrous iron, calcium, copper and zinc-charged NTA-coated plates using FITC-labeled IM3 peptide (0.5 uM) and 8× (4 uM) unlabelled competitor peptides IM3N1, IM3N2 (*all comparisons to PBS control are p<0.01); # fluorescent value of binding to […] was set at 100.

[2] = target: T1, DNA-binding domain (DBD) of RXR-alpha (Homo sapiens, UniProt P19793); assay: Binding to RXRa-DBD with or without ferric iron (x3B)
T1 construct: purchased Abcam, Cambridge, MA
T1 sequence (P19793 111-228): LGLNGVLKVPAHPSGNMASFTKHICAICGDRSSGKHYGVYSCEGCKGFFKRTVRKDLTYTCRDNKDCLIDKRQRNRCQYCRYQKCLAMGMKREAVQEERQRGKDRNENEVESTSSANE
Method: Experiment x3B. Binding of immodulator peptides to DNA-binding domain (DBD) of RXR-alpha, with or without ferric iron. 100 ng/well recombinant RXRa-DBD (Abcam, Cambridge, MA) was adsorbed to wells of a 96-well plate for 60 minutes at RT, then blocked with 200 uL 1% BSA in PBS buffer overnight. Plate was washed and 800 ng/well Streptavidin-Alexa 488 conjugate (SA488)-labelled IM peptide was added, with or without ferric chloride (5 uM) or 5-fold excess RXRa-DBD. The plate was incubated for 2 hours at room temperature, washed and counted in a standard fluorometer (excitation/emission 485/525 nm).

full-length huNur77 = target: T2, full-length huNur77 (Homo sapiens, UniProt P22736); assay: Binding to full-length huNur77 (x3C); conditions: 333 ng/well labelled peptide
T2 construct: purchased Abcam, Cambridge, MA
Method: 400 ng/well recombinant Nur77 (Abcam, Cambridge, MA) was adsorbed to wells of a 96-well plate for 90 minutes at RT, then blocked with 200 uL 1% BSA in PBS buffer overnight. Plate was washed and 333 ng/well Streptavidin-Alexa 488 conjugate (SA488)-labelled IM3, IM4 or no peptide was added. The plate was incubated for 60 min at room temperature, washed and counted in a standard fluorometer (excitation/emission 485/525 nm). Background (buffer alone) was subtracted.

[3] = FITC-PI(4)P1 binding to plate-bound peptide with calcium (x9A)
Method: Immodulator peptides IM1, IM3 and IM5 (400 ng/well) in PBS were bound to streptavidin-coated 96-well plates at room temperature for 60 minutes, in the presence or absence of 500 uM calcium chloride. Each well also received 200 ng cold PPI plus 10 ng FITC-labeled PI(4,5)P2 or PI(4)P1. The tables below show the relative fluorescence (with/without calcium background) expressed as a percentage of the highest binder, FITC-PI(4,5)P2+cold PI(3,5)P2, which was 2,496 fluorescence units. Background binding without calcium was, in all cases, 200-300 fluorescence units.

[4] = FITC-PI(4,5)P2 binding at pH5.2 with metals and cold PPI (x9D)
Method: To a streptavidin-coated 96-well plate, 400 ng peptide IM3 or IM5 were bound per well. Each well received 100 uL of sodium acetate buffer pH5.2 containing 500 uM EDTA, Calcium Chloride, Zinc Chloride or Ferric Chloride. Each well additionally contained 50 ng FITC-PI(4,5)P2 plus 2 ug of either cold PI(3,4)P2, PI(4,5)P2, PI(3,5)P2 or buffer. All assays were done in sextuplicate. After incubation at room temperature for 60 mins, wells were washed and counted in a fluorometer set at FITC excitation/emmission wavelengths.

T2 sequence (P22736 whole entry): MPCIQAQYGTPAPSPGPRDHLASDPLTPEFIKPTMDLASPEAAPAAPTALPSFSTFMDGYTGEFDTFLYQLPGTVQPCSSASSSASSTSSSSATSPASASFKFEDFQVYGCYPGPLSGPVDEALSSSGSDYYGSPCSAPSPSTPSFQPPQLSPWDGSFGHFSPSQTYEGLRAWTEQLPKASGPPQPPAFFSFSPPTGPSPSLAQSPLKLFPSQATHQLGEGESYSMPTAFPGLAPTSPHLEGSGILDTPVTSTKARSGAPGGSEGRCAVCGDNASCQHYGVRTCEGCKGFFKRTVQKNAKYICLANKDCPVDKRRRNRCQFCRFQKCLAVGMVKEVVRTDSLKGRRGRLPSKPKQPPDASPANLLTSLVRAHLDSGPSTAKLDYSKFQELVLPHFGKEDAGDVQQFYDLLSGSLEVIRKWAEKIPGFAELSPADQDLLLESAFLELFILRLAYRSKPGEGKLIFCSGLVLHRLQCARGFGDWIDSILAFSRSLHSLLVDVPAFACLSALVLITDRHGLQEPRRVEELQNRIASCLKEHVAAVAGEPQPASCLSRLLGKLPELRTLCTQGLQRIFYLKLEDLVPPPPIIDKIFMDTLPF

N=C(N)NCCC[C@H](NC(=O)CNC(=O)[C@H](CCCCN)NC(=O)[C@H](CO)NC(=O)[C@@H]1CCCN1C(=O)[C@H](CCCNC(=N)N)NC(=O)[C@H](CS)NC(=O)[C@H](CCC(N)=O)NC(=O)[C@H](CCCCN)NC(=O)[C@H](CCCCN)NC(=O)[C@H](CCCCN)NC(=O)[C@H](Cc1ccc(O)cc1)NC(=O)[C@H](Cc1ccccc1)NC(=O)CNC(=O)[C@H](CCCCN)NC(=O)[C@@H](N)CCCCN)C(=O)N[C@@H](CCCCN)C(=O)N[C@@H](CCCNC(=N)N)C(=O)NCC(=O)N[C@@H](Cc1ccccc1)C(=O)N[C@@H](CS)C(=O)N[C@@H](Cc1c[nH]c2ccccc12)C(=O)O [IM3] (H-KKGFYKKKQCRPSKGRKRGFCW-OH; N-terminus and C-terminus assumed)
FITC-IM3 fluorescence, no competitor (PBS) ([1]; Calcium, set at 100): 100.0 ± 1.9
FITC-IM3 fluorescence, no competitor (PBS) ([1]; Copper, calcium = 100): 53.0 ± 0.6
FITC-IM3 fluorescence, no competitor (PBS) ([1]; Ferrous iron, calcium = 100): 85.6 ± 5.8
FITC-IM3 fluorescence, no competitor (PBS) ([1]; Zinc, calcium = 100): 85.9 ± 5.5
fluorescence ([2]; 100 ng/well RXRa-DBD, no FeCl3, no excess RXRa-DBD): 687.3 ± 55.4
fluorescence ([2]; FeCl3 5 uM, 5X excess RXRa-DBD): 837.0 ± 30.5
fluorescence ([2]; FeCl3 5 uM, no excess RXRa-DBD): 1161.3 ± 78.5
fluorescence (full-length huNur77; Nur77 400 ng/well): 488 ± 38
fluorescence (full-length huNur77; no Nur77 adsorbed): 59 ± 17
relative fluorescence, FITC-PI(4)P1 bound ([3]; cold PPI: 3,4,5-P3): 1.2 percentage of the highest binder
relative fluorescence, FITC-PI(4)P1 bound ([3]; cold PPI: 3,4-P2): 2.4 percentage of the highest binder
relative fluorescence, FITC-PI(4)P1 bound ([3]; cold PPI: 3,5-P2): 5.6 percentage of the highest binder
relative fluorescence, FITC-PI(4)P1 bound ([3]; cold PPI: 3-P1): 2.5 percentage of the highest binder
relative fluorescence, FITC-PI(4)P1 bound ([3]; cold PPI: 4,5-P2): 0.1 percentage of the highest binder
relative fluorescence, FITC-PI(4)P1 bound ([3]; cold PPI: 4-P1): 2.4 percentage of the highest binder
relative fluorescence, FITC-PI(4)P1 bound ([3]; cold PPI: 5-P1): 1.9 percentage of the highest binder
relative fluorescence, FITC-PI(4)P1 bound ([3]; cold PPI: None): 2.5 percentage of the highest binder
fluorescence, FITC-PI(4,5)P2 bound ([4]; Buffer, Calcium): 142 ± 29
fluorescence, FITC-PI(4,5)P2 bound ([4]; Buffer, EDTA): 30 ± 22
fluorescence, FITC-PI(4,5)P2 bound ([4]; Buffer, Ferric Iron): 772 ± 168
fluorescence, FITC-PI(4,5)P2 bound ([4]; Buffer, Zinc): 138 ± 388
fluorescence, FITC-PI(4,5)P2 bound ([4]; Cold PI(3,4)P2, Calcium): 48 ± 61
fluorescence, FITC-PI(4,5)P2 bound ([4]; Cold PI(3,4)P2, EDTA): 26 ± 25
fluorescence, FITC-PI(4,5)P2 bound ([4]; Cold PI(3,4)P2, Ferric Iron): 2,162 ± 269
fluorescence, FITC-PI(4,5)P2 bound ([4]; Cold PI(3,4)P2, Zinc): 65 ± 16
fluorescence, FITC-PI(4,5)P2 bound ([4]; Cold PI(3,5)P2, Calcium): 88 ± 22
fluorescence, FITC-PI(4,5)P2 bound ([4]; Cold PI(3,5)P2, EDTA): 63 ± 26
fluorescence, FITC-PI(4,5)P2 bound ([4]; Cold PI(3,5)P2, Ferric Iron): 2,036 ± 303
fluorescence, FITC-PI(4,5)P2 bound ([4]; Cold PI(3,5)P2, Zinc): 118 ± 43
fluorescence, FITC-PI(4,5)P2 bound ([4]; Cold PI(4,5)P2, Calcium): 32 ± 23
fluorescence, FITC-PI(4,5)P2 bound ([4]; Cold PI(4,5)P2, EDTA): 10 ± 16
fluorescence, FITC-PI(4,5)P2 bound ([4]; Cold PI(4,5)P2, Ferric Iron): 1,464 ± 320
fluorescence, FITC-PI(4,5)P2 bound ([4]; Cold PI(4,5)P2, Zinc): 21 ± 22
